# Earlier results in US12324431B2, “Compositions and methods for scalable production and delivery of biologicals” (priority 2017, dated 2025).
# Test system: insects
# Settings: potency similar to imidacloprid
substance,measurement,value
orally active insecticidal peptide-1 [OAIP-1],toxicity to insects,highly toxic
